The results in this text go back to patent US12144881B2, “Cosmetic composition containing α-mangostin, method for preparation, and uses thereof” (priority 2018, dated 2024).

The nature of series [1]: UV absorption spectra in the UV wavelength region. Format: physicochemical. Conditions: FIG. 1, UVB 290-320 nm and UVA 320-400 nm. The source says: The present inventors tested the UV absorbance of α-mangostin, butyl methoxydibenzoylmethane and octyl salicylate in the UV wavelength region separately. […] Therefore, the α-mangostin has obvious advantages over the sunscreen agent octyl salicylate, and has a part of the absorption band which can be complementary to that of octyl salicylate, enhancing the UVB protection effect and increasing the SPF value.

Series [2] is described as follows: ORAC 5.0 (sum of five ORAC results). Conditions: trolox equivalent. As for the experimental part: Test Method: Oxygen Radical Absorbance Capacity (ORAC) Assay
Specific method: An extraction solution containing a solubilizing compound was prepared, the sample was added to the extraction solution to extract the antioxidants present in the sample, and a fluorescent probe was added to the extract, a free radical generator was added to the extract, to detect the decay of the fluorescence intensity of the probe in the sample over time, and calculate the oxidation resistance of the sample based on the decay of the fluorescence intensity of the probe in the sample.
Note: There are 5 main reactive oxygen species (ROS) in the human body: peroxy radicals, hydroxyl radicals, peroxynitrite, superoxide anions and singlet oxygen.
The results of ORAC are expressed as micromole trolox equivalent (μmole TE)/gram. Trolox is a vitamin E analog, which is an antioxidant standard substance.

A short description of series [3]: Oxygen Radical Absorbance Capacity (ORAC) assay against oxide anion. Particulars: trolox equivalent. On the procedure: (§1) Test Method: Oxygen Radical Absorbance Capacity (ORAC) Assay Specific method: An extraction solution containing a solubilizing compound was prepared, the sample was added to the extraction solution to extract the antioxidants present in the sample, and a fluorescent probe was added to the extract, a free radical generator was added to the extract, to detect the decay of the fluorescence intensity of the probe in the sample over time, and calculate the oxidation resistance of the sample based on the decay of the fluorescence intensity of the probe in the sample. The results of ORAC are expressed as micromole trolox equivalent (μmole TE)/gram. Trolox is a vitamin E analog, which is an antioxidant standard substance.

A short description of series [4]: Photolysis of butyl methoxydibenzoylmethane under sunlight and its inhibition by α-mangostin (absorbance at 357 nm). Format: physicochemical. Conditions: for M value: M=Bi/Ai, butyl methoxydibenzoylmethane remaining with α-mangostin vs control. As for the experimental part: Instrument and equipment: Model 751-GW spectrophotometer; and FA1004 electronic balance. Reagents: butyl methoxydibenzoylmethane, from Shanghai SIMP Co., Ltd.; and an α-mangostin sample. • (6) Formulation of standard stock solutions of butyl methoxydibenzoylmethane and the sample: 20.0 mg of butyl methoxydibenzoylmethane and α-mangostin were weighed separately, and diluted with a specific mixed solvent (an acetone-water mixed solvent with a ratio by volume of acetone to water of 5:1, hereinafter referred to as mixed solvent) to a volume of 10 ml. • (7) Formulation of reference solutions of butyl methoxydibenzoylmethane and the sample: The mixed solvent was used as the reference solution of butyl methoxydibenzoylmethane. 0.1 ml of the standard stock solution of the α-mangostin sample was drawn, and diluted with the mixed solvent to a volume of 10 ml, as the reference solution of the sample. • (8) Formulation of standard working solutions (20 μg/ml) of butyl methoxydibenzoylmethane and the sample: 0.1 ml of the standard stock solution of butyl methoxydibenzoylmethane was drawn and diluted with the mixed solvent to a volume of 10 ml. 0.1 ml aliquots of the standard stock solution of the α-mangostin sample were drawn separately, and added separately to 0.1 ml aliquots of the standard stock solution of butyl methoxydibenzoylmethane, and then diluted with the mixed solvent to a volume of 10 ml. • (9) Reference solutions and standard working solutions of different concentrations of rutin were formulated according to Steps (2) and (3). • (10) Determination of the photolysis rate and photolysis inhibition rate of butyl methoxydibenzoylmethane: The absorbance of the standard working solution of butyl methoxydibenzoylmethane and the absorbance of butyl methoxydibenzoylmethane in the α-mangostin sample were measured at 357 nm. Then they were subjected to the sunlight exposure, and the absorbance thereof was measured every day. The photolysis rate, the photolysis inhibition rate and the M value of butyl methoxydibenzoylmethane were calculated according to the following formulas: % Photolysis rate=(A0−Ai)/A0×100% % Photolysis inhibition rate=[1−(B0−Bi)/(A0−Ai)]×100 M=Bi/Ai In the formulas, A0 is the absorbance of the standard working solution of butyl methoxydibenzoylmethane; Ai is the absorbance of the standard working solution of butyl methoxydibenzoylmethane after i days of light exposure; B0 is the absorbance of butyl methoxydibenzoylmethane in the standard working solution of the α-mangostin sample; Bi is the absorbance of butyl methoxydibenzoylmethane in the standard working solution of the α-mangostin sample after i days of light exposure; and M is the ratio of the amount of butyl methoxydibenzoylmethane remaining in the α-mangostin sample to the amount of butyl methoxydibenzoylmethane remaining in the control sample without the sample added. For the above α-mangostin sample and butyl methoxydibenzoylmethane, each was determined for the photolysis inhibition rate or the photolysis rate at the same exposure time, to obtain the curve of light exposure time vs. photolysis inhibition rate of the α-mangostin sample (FIG. 3) and the curve of light exposure time vs. photolysis rate of butyl methoxydibenzoylmethane (FIG. 2).

Series [5] is described as follows: Oxygen Radical Absorbance Capacity (ORAC) assay against hydroxyl radicals. Conditions: trolox equivalent. On the procedure: as §1
A short description of series [6]: Oxygen Radical Absorbance Capacity (ORAC) assay against single oxygen. Conditions: trolox equivalent. On the procedure:
as §1

The nature of series [7]: Oxygen Radical Absorbance Capacity (ORAC) assay against peroxyl radicals. Conditions: trolox equivalent. On the procedure:
as §1

A further series in a line: Solubility in water. Conditions: extracted α-mangostin. Format: physicochemical.
A short description of series [8]: Oxygen Radical Absorbance Capacity (ORAC) assay against peroxynitrite. Particulars: trolox equivalent. As for the experimental part:
as §1

SMILES strings stand for the structures.

`COc1c(O)cc2oc3cc(O)c(CC=C(C)C)c(O)c3c(=O)c2c1CC=C(C)C` [α-mangostin]: the “UV absorption (in words)” value in series [1] is recorded as “relatively strong absorption from the UVB range of 290-320 nm to the UVA range of 320-400 nm”. The “ORAC 5.0 (sum of above)” value in [2] is listed as 31,468 μmole TE/gram. Moreover, the “ORAC against oxide anion” value in series [3] was 13,043 μmole TE/gram. In addition, the M value is reported as 5.77 in [4] (Day 1) and 12.31 in series [4] (Day 2). Besides, in [4] (sunlight), the “inhibitory effect on the photolysis of butyl methoxydibenzoylmethane (in words)” value is on record as “very good inhibitory effect”. Further, the “Inhibition rate of α-mangostin (photolysis inhibition rate)” value in series [4] (sunlight, light exposure time 1 d, 20 μg/ml each) is 84.3%; in series [4] (sunlight, light exposure time 2 d) it was 82.9%; in series [4] (sunlight, light exposure time 3 d), 82.1%; in series [4] (sunlight, light exposure time 4 d), 80.5%; in series [4] (sunlight, light exposure time 5 d), 76.4%. Besides, the “ORAC against hydroxyl radicals” value in [5] is given as 9,055 μmole TE/gram. Also, the “ORAC against single oxygen” value in series [6] worked out at 262 μmole TE/gram. Besides, the “ORAC against peroxyl radicals” value in series [7] is 8,704 μmole TE/gram. In addition, the “solubility in water (in words)” value in “Solubility in water” was “poor solubility in water”. Moreover, the ORAC against peroxynitrite in series [8] is given as 404 μmole TE/gram.
